Measured values published in patent publication US8846019B2, “Use of protoberberines as an active substance regulating the pilosebaceous unit” (Sederma, priority 2005, dated 2014).
Read-outs that look alike come from different tables or passages of the source. Marks after values point to notes of the source that are not given here.

How the values were obtained:
Assay type in all cases: cell-based
keratinocytes [1] = experiment: Toxicity evaluation on keratinocytes, Hoescht (number of cells); settings: for Hoescht % Change: percent of negative controle
fibroblasts [2] = experiment: Toxicity evaluation on fibroblasts, MTT (mitochondrial respiration); settings: for MTT % Change: percent of negative controle
keratinocytes [3] = experiment: Variation of the incorporation of BrdU, keratinocytes with palmatine or berberine; settings: 48 hours of contact
keratinocytes [4] = experiment: Toxicity evaluation on keratinocytes, MTT (mitochondrial respiration); settings: for MTT % Change: percent of negative controle
fibroblasts [5] = experiment: Toxicity evaluation on fibroblasts, Hoescht (number of cells); settings: for Hoescht % Change: percent of negative controle
[6] = tested on: Normal human keratinocytes (KHN); experiment: Antiproliferative effect: BrdU incorporation by human keratinocytes (ELISA); settings: for % incorporation of BrdU/control: 48 hours, 10% FCS; for effect on proliferation of keratinocytes (in words): dose-dependent mitotic decrease
Description: This test is based on the determination of the cellular growth rate. Cells are cultivated in complete medium enriched in FCS (10%) so as to obtain a population in active growth, Mitotic activity is assessed by the incorporation of a nucleotide base analog in DNA during replication: […] replaces thymidine. With a product slowing mitosis, a decrease in BrdU incorporation in cell DNA is to be expected.
Normal human keratinocytes (KHN) cultured with 10% FCS were incubated in the presence or absence of palmatine, or chelidonine at various concentrations for 48 hours.
After the first 24 hours, BrdU was added to the culture medium and the mitosis marker was allowed to act for 24 hours.
After 48 hours, the cells were lysed and the BrdU incorporation rate was determined by an ELISA method.

[7] = keratinocytes, at the tested concentrations
[8] = keratinocytes, concentration 3.10^E−4%
[9] = keratinocytes, concentration 10^E−3%
[10] = fibroblasts, at the tested concentrations
[11] = fibroblasts, concentration 3.10^E−4%
[12] = fibroblasts, concentration 9.10^E−4%

COc1ccc2cc3[n+](cc2c1OC)CCc1cc2c(cc1-3)OCO2 [BERBERINE, berberine]
effect on the number of keratinocytes (in words) (keratinocytes [1]): a decrease on the number of keratinocytes | change of the mitochondrial respiration (in words) (fibroblasts [2]): engenders a change of the mitochondrial respiration | toxicity on fibroblasts (conclusion in words) (fibroblasts [2]): toxic effect on fibroblasts | % Change of the incorporation of BrdU (keratinocytes [3]; concentration 3.10^E−4%): −36%** | % Change of the incorporation of BrdU (keratinocytes [3]; concentration 10^E−3%): −65%** | change of the mitochondrial respiration (in words) (keratinocytes [4]): engenders a change of the mitochondrial respiration | toxicity on keratinocytes (conclusion in words) (keratinocytes [4]): toxic effect | effect on the number of fibroblasts (in words) (fibroblasts [5]): a decrease on the number of fibroblasts

CN1Cc2c(ccc3c2OCO3)[C@@H]2[C@H]1c1cc3c(cc1C[C@@H]2O)OCO3 [Chelidonine, chelidonine]
% incorporation of BrdU/control ([6]; concentration 3 × 10E−4%): −41% | % incorporation of BrdU/control ([6]; concentration 10E−4%): −31% | % incorporation of BrdU/control ([6]; concentration 10 × 10E−4%): −74% | effect on proliferation of keratinocytes (in words) [6]: inhibit the proliferation of keratinocytes

COc1cc2c(cc1OC)-c1cc3ccc(OC)c(OC)c3c[n+]1CC2 [palmatine]
effect on the number of keratinocytes (in words) (keratinocytes [1]; [7]): does not act on the number of keratinocytes | Hoescht % Change (keratinocytes [1]; [8]): −1 dns % | Hoescht % Change (keratinocytes [1]; [9]): −2 dns % | toxicity on fibroblasts (conclusion in words) (fibroblasts [2]; fibroblasts, MTT and Hoescht): not toxic on fibroblasts | change of the mitochondrial respiration (in words) (fibroblasts [2]; [10]): does not engender a change of the mitochondrial respiration | MTT % Change (fibroblasts [2]; [11]): 0 dns % | MTT % Change (fibroblasts [2]; [12]): −9 dns % | % Change of the incorporation of BrdU (keratinocytes [3]; concentration 3.10^E−4%): −16%** | % Change of the incorporation of BrdU (keratinocytes [3]; concentration 10^E−3%): −21%** | change of the mitochondrial respiration (in words) (keratinocytes [4]; [7]): does not engender a change of the mitochondrial respiration | MTT % Change (keratinocytes [4]; [8]): 7 dns % | MTT % Change (keratinocytes [4]; [9]): 5 dns % | toxicity on keratinocytes (conclusion in words) (keratinocytes [4]; keratinocytes, with respect to the different results): not toxic | % incorporation of BrdU/control ([6]; concentration 3 × 10E−4%): −35% | % incorporation of BrdU/control ([6]; concentration 10E−4%): −21% | % incorporation of BrdU/control ([6]; concentration 10 × 10E−4%): −58% | effect on proliferation of keratinocytes (in words) [6]: inhibit the proliferation of keratinocytes | effect on the number of fibroblasts (in words) (fibroblasts [5]; [10]): does not act on the number of fibroblasts | Hoescht % Change (fibroblasts [5]; [11]): 1dns % | Hoescht % Change (fibroblasts [5]; [12]): −1 dns %
